Reference: patent US8748486B2, “Inhibitors of yeast filamentous growth and method of their manufacture” (priority 2003, dated 2014)

Key:
C. albicans = details: cited from earlier work
C. albicans strain CAI4 [1] = assay: toxic effect on yeast cell growth; type: cell-based, Candida albicans; details: for toxic effect on yeast cell growth: concentrations up to 1 mM
Experimental: (§1) A starter culture of C. albicans strain CAI4 was prepared by growing the fungus at a low temperature (28° C.) in GS medium to maintain the yeast cell morphology. […] The synthetic DSF was indistinguishable with the natural DSF in inhibition of germ tube formation.

[2] = tested on: C. albicans strain CAI4 (ATCC MYA-684); assay: in vitro bioassay of inhibitory activity against C. albicans yeast-to-mycelium transition; type: cell-based, Candida albicans; details: comparison within cis/trans pair, FIG. 2
Experimental: An in vitro bioassay of the inhibitory activity of the fatty acids of FIG. 2 against C. albicans yeast-to-mycelium transition was carried out.
C. albicans strain CAI4 (ATCC MYA-684) was incubated at 28° C. for 24 h with shaking in a glucose salts (GS) medium (5 g of glucose, 0.26 g of Na2HPO4.12H2O, 0.66 g of KH2PO4, 0.88 g of MgSO4.7H2O, 0.33 g of NH4Cl, 16 μg of biotin per liter) supplemented with 0.1 mg/ml of uridine.
All the C. albicans cells remained, in the yeast form under these conditions. The yeast cells were washed three times with GS medium before use and then were dispersed in GS medium to give a solution with a final OD600 of 1.0.
The test compounds set out in FIG. 2 were diluted to the indicated concentrations with GS medium and were added to 100 μl of the washed C. albicans culture in 96-well microtitre plates, mixed and incubated at 37° C. for 6 hours (h).
The percentages of yeast cells and germ tubes (filamentous form) were determined microscopically by counting about 300 cells from three replicates. Inhibitory activity was defined as the mole concentration that gave a minimum of 90% inhibition (IC90) relative to control.

C. albicans strain CAI4 [3] = assay: yeast-to-mycelium conversion of a C. albicans culture at 37° C. with or without DSF; type: cell-based, Candida albicans
Experimental: as §1

C=C(C)C1CC=C(C)C(=O)C1 (stereo not shown) [Carvone]
formation of filamentous structures of C. albicans (C. albicans): interfere with the formation of filamentous structures

CC(C)CCCCCCC/C=C\C(=O)O [Compound 1, cis-11-methyl-2-dodecenoic acid]
effect on yeast growth (C. albicans strain CAI4 [1]; FIGS. 3a and 3b): does not affect yeast growth
toxic effect on yeast cell growth (C. albicans strain CAI4 [1]): not observed to have a toxic effect
toxic effect on yeast cell growth (C. albicans strain CAI4 [1]; listed as DSF): No toxic effect
inhibitory activity of cis- and trans-isomer pairs compared [2]: identical inhibitory activity
yeast-to-mycelium transition (C. albicans strain CAI4 [3]; 30 μM, 37° C., within 6 hours, GS medium): completely abolished
yeast-to-mycelium transition of a culture of Candida albicans (C. albicans strain CAI4 [3]; FIGS. 3a and 3b): inhibits
inhibition of germ tube formation compared with the natural DSF (C. albicans strain CAI4 [3]; synthetic versus natural DSF): indistinguishable

CC(C)CCCCCCC/C=C/C(=O)O [Compound 2, trans-11-methyl-2-dodecenoic acid]
inhibitory activity of cis- and trans-isomer pairs compared [2]: identical inhibitory activity

CC(C)=CCCC(C)=CCCC(C)=CC(=O)O [Compound 3, 3,7,11-trimethyl-2,6,10-dodecatrienoic acid]
C. albicans germ tube (mycelium) formation (C. albicans): inhibits

CCCCCCCCC/C=C\C(=O)O [Compound 7, cis-2-dodecenoic acid]
inhibitory activity of cis- and trans-isomer pairs compared [2]: very similar or identical inhibitory activity

CC(C)=CCCC(C)=CCCC(C)=CCO [Farnesol]
mycelial development of C. albicans (C. albicans; growth morphology assay and differentiation assay, activators L-proline, N-acetylglucosamine, serum): prevent mycelial development

C=C(C)C1CC=C(C=O)CC1 (stereo not shown) [perillaldehyde]
formation of filamentous structures of C. albicans (C. albicans): interfere with the formation of filamentous structures
